Results published in PubChem BioAssay (NCI).
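Exposure lasted 48 hours, with cells grown in 96-well plates and compounds tested at five concentrations. GI50 marks 50% less growth. TGI marks complete inhibition of growth.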

How the values were obtained:
Test in all cases: DTP human tumour cell line panel, 48 h
[1] = tested on: HCC-2998 colon
[2] = tested on: A498 renal
[3] = tested on: OVCAR-4 ovarian
[4] = tested on: IGROV1 ovarian
[5] = tested on: EKVX NSCLC
[6] = tested on: HT29 colon
[7] = tested on: MOLT-4 leukemia
[8] = tested on: NCI-H23 lung
[9] = tested on: MCF7 breast
[10] = tested on: MDA-MB-231 breast
[11] = tested on: MDA-MB-435
[12] = tested on: CCRF-CEM leukemia
[13] = tested on: HS 578T breast
[14] = tested on: SNB-75 CNS
[15] = tested on: OVCAR-8 ovarian
[16] = tested on: UACC-62 melanoma
[17] = tested on: UO-31 renal
[18] = tested on: ACHN renal
[19] = tested on: SW-620 colon
[20] = tested on: SF-539 CNS
[21] = tested on: HCT-15 colon
[22] = tested on: NCI-H460 lung
[23] = tested on: LOX IMVI melanoma
[24] = tested on: HCT-116 colon
[25] = tested on: SNB-19 CNS
[26] = tested on: HOP-62 NSCLC
[27] = tested on: TK-10 renal
[28] = tested on: RPMI-8226 leukemia
[29] = tested on: SK-MEL-28 melanoma
[30] = tested on: T-47D breast
[31] = tested on: SF-295 CNS
[32] = tested on: KM12 colon
[33] = tested on: U251 CNS
[34] = tested on: SK-MEL-2 melanoma
[35] = tested on: MALME-3M melanoma
[36] = tested on: SK-MEL-5 melanoma
[37] = tested on: K-562 leukemia
[38] = tested on: UACC-257 melanoma
[39] = tested on: SN12C renal
[40] = tested on: 786-0 renal
[41] = tested on: BT-549 breast
[42] = tested on: CAKI-1 renal
[43] = tested on: SF-268 CNS
[44] = tested on: HL-60(TB) leukemia
[45] = tested on: NCI-H522 lung
[46] = tested on: M14 melanoma
[47] = tested on: OVCAR-5 ovarian
[48] = tested on: A549 NSCLC
[49] = tested on: COLO 205 colon
[50] = tested on: NCI/ADR-RES ovarian
[51] = tested on: SK-OV-3 ovarian
[52] = tested on: RXF 393 renal
[53] = tested on: PC-3 prostate
[54] = tested on: DU-145 prostate
[55] = tested on: HOP-92 NSCLC
[56] = tested on: SR leukemia
[57] = tested on: NCI-H226 lung

SMILES: NC(=S)n1c(=O)n(-c2cccc(C(F)(F)F)c2)c(=O)c2cc(-c3ccc(F)cc3F)ccc21
- GI50 [1]: 2960 nM
- TGI [1]: 9.27 µM
- GI50 [2]: 341 nM
- TGI [2]: 1220 nM
- GI50 [3]: 2390 nM
- TGI [3]: 22.5 µM
- GI50 [4]: 1990 nM
- TGI [4]: 13 µM
- GI50 [5]: 2390 nM
- TGI [5]: 7.95 µM
- GI50 [6]: 3.34 µM
- TGI [6]: 11.9 µM
- GI50 [7]: 1660 nM
- TGI [7]: 4.84 µM
- GI50 [8]: 1180 nM
- TGI [8]: 5.1 µM
- GI50 [9]: 1700 nM
- TGI [9]: 8.18 µM
- GI50 [10]: 1820 nM
- TGI [10]: 5.95 µM
- GI50 [11]: 1560 nM
- TGI [11]: 5.46 µM
- GI50 [12]: 2270 nM
- TGI [12]: 11.5 µM
- GI50 [13]: 1110 nM
- TGI [13]: 4.45 µM
- GI50 [14]: 1500 nM
- TGI [14]: 5.17 µM
- GI50 [15]: 1290 nM
- TGI [15]: 6.48 µM
- GI50 [16]: 379 nM
- TGI [16]: 1610 nM
- GI50 [17]: 2300 nM
- TGI [17]: 8.58 µM
- GI50 [18]: 2270 nM
- TGI [18]: 10.5 µM
- GI50 [19]: 1600 nM
- TGI [19]: 4.2 µM
- GI50 [20]: 1920 nM
- TGI [20]: 8.79 µM
- GI50 [21]: 769 nM
- TGI [21]: 2690 nM
- GI50 [22]: 763 nM
- TGI [22]: 5.41 µM
- GI50 [23]: 1540 nM
- TGI [23]: 3.17 µM
- GI50 [24]: 953 nM
- TGI [24]: 2300 nM
- GI50 [25]: 1290 nM
- TGI [25]: 22.9 µM
- GI50 [26]: 1830 nM
- TGI [26]: 4.44 µM
- GI50 [27]: 4.05 µM
- TGI [27]: 8.47 µM
- GI50 [28]: 575 nM
- TGI [28]: 3.11 µM
- GI50 [29]: 1430 nM
- TGI [29]: 6.24 µM
- GI50 [30]: 1540 nM
- TGI [30]: 6.09 µM
- GI50 [31]: 1750 nM
- TGI [31]: 3.62 µM
- GI50 [32]: 2260 nM
- TGI [32]: 6.21 µM
- GI50 [33]: 1740 nM
- TGI [33]: 9.31 µM
- GI50 [34]: 590 nM
- TGI [34]: 2350 nM
- GI50 [35]: 1510 nM
- TGI [35]: 4.95 µM
- GI50 [36]: 333 nM
- TGI [36]: 1140 nM
- GI50 [37]: 725 nM
- TGI [37]: 14.1 µM
- GI50 [38]: 1070 nM
- TGI [38]: 4 µM
- GI50 [39]: 1260 nM
- TGI [39]: 6.3 µM
- GI50 [40]: 2000 nM
- TGI [40]: 4.39 µM
- GI50 [41]: 1180 nM
- TGI [41]: 2620 nM
- GI50 [42]: 1610 nM
- TGI [42]: 5.86 µM
- GI50 [43]: 2000 nM
- TGI [43]: 11.3 µM
- GI50 [44]: 1600 nM
- TGI [44]: 7.26 µM
- GI50 [45]: 428 nM
- TGI [45]: 2870 nM
- GI50 [46]: 1600 nM
- TGI [46]: 4.23 µM
- GI50 [47]: 3.54 µM
- TGI [47]: 17.5 µM
- GI50 [48]: 2730 nM
- TGI [48]: 11.3 µM
- GI50 [49]: 1760 nM
- TGI [49]: 3.36 µM
- GI50 [50]: 1970 nM
- TGI [50]: 9.41 µM
- GI50 [51]: 1210 nM
- TGI [51]: 3.6 µM
- GI50 [52]: 1220 nM
- TGI [52]: 3.09 µM
- GI50 [53]: 1050 nM
- TGI [53]: 4.11 µM
- GI50 [54]: 2740 nM
- TGI [54]: 13.7 µM
- GI50 [55]: 191 nM
- TGI [55]: 741 nM
- GI50 [56]: 984 nM
- TGI [56]: 5.15 µM
- GI50 [57]: 1420 nM
- TGI [57]: 3.89 µM
